Results reported in publication PMC8220418, “A fragment-based approach to assess the ligandability of ArgB, ArgC, ArgD and ArgF in the L-arginine biosynthetic pathway of Mycobacterium tuberculosis” (Computational and Structural Biotechnology Journal, 2021).
Converted amounts (≈) assume the structure as drawn.

Key:
ArgF [1] = biological target: T1, ArgF (Mycobacterium tuberculosis, UniProt P9WIT9); experiment: Isothermal titration calorimetry with ArgF; format: binding; conditions: 25 °C, single-site model; read-out: ITC Kd
T1 sequence (P9WIT9 whole entry): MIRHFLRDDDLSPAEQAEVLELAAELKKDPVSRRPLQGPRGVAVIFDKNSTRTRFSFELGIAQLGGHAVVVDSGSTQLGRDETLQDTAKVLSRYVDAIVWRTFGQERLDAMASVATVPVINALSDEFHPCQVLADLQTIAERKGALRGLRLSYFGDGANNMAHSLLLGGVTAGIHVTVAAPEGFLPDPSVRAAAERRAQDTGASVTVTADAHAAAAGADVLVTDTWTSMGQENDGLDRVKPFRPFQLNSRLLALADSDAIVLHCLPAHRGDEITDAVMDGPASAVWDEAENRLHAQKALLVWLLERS
Protocol: ArgF was dialysed in 50 mM HEPES pH 8.0, 200 mM NaCl before it was loaded into the calorimetry cell at concentrations of 75–100 μM with the addition of 1 mM DTT. Ligand solutions at concentrations of 1 mM were dissolved in the same buffer and typically injected between 0.5 μL and 2 μL at 150 s intervals with stirring at 750 rpm. Buffer-ligand titrations were carried out as reference runs and subtracted from the protein–ligand titration to remove the heat of dilution. Data were analysed by fitting a simple single-site model using Origin software (Microcal).

ArgF [2] = biological target: T1, ArgF; experiment: biochemical; format: binding; conditions: fragments at 5 mM, 5 µM ArgF, 5% DMSO; read-out: DSF ΔTm
Protocol: Fragment screening was carried out in a 96-well PCR plate using a CFX Connect Real-time PCR Detection System (Bio-Rad) for DSF. […] For ArgF each 25 μL reaction mixture contained 5 µM ArgF, 25 mM Tris-HCl (pH 8.0), 150 mM NaCl, 5x SYPRO Orange dye, 5 mM fragments and 5% DMSO (v/v). […] The protocol implemented increased temperature by 0.5 °C after every 30 s, going from 25 °C to 95 °C and measuring SYPRO Orange fluorescence for each temperature cycle. The melt curve RFU (relative fluorescence units) and derivative -d(RFU)/dT values were analysed and plotted using a macros-enabled Excel Workbook: the minima of the melt curves were recorded as the melting temperature (Tm) of the enzymes in the presence of each fragment. The Tm of the reference control (protein in the presence of DMSO) was subtracted from all the readings to calculate ΔTm.

ArgB [3] = biological target: T2, ArgB (Mycobacterium tuberculosis, UniProt P9WQ01); experiment: Ligand-observed NMR (STD) with ArgB; format: binding; conditions: 2 mM fragment, 10 µM ArgB
[4] = system: M. tuberculosis MDR strain V2475; experiment: microbe, parasite or virus in culture; format: cell-based, Mycobacterium tuberculosis; conditions: for MIC: Mycobacterium tuberculosis
ArgB [5] = biological target: T2, ArgB; experiment: Ligand-observed NMR (CPMG) with ArgB, incl. displacement experiments; format: binding; conditions: 2 mM fragment, 10 µM ArgB; for NMR competition with natural ligands (ATP, NAG, L-arginine): 1 mM each natural ligand
M. tuberculosis H37Rv = experiment: microbe, parasite or virus in culture; format: cell-based, Mycobacterium tuberculosis; conditions: for MIC: Mycobacterium tuberculosis, media without arginine; for Inhibitory activity on growth with arginine present: arginine (1 mM) in the media
ArgB [6] = biological target: T2, ArgB; experiment: Differential scanning fluorimetry (DSF) fragment screening against ArgB; format: binding; conditions: fragments at 5 mM, 10 µM ArgB, 5% DMSO
Protocol: Fragment screening was carried out in a 96-well PCR plate using a CFX Connect Real-time PCR Detection System (Bio-Rad) for DSF. For ArgB, each 25 μL reaction mixture contained 10 µM ArgB, 100 mM HEPES (pH 7.5), 200 mM NaCl, 5x SYPRO Orange, 5% DMSO (v/v), and fragments at 5 mM. For ArgF each 25 μL reaction mixture contained 5 µM ArgF, 25 mM Tris-HCl (pH 8.0), 150 mM NaCl, 5x SYPRO Orange dye, 5 mM fragments and 5% DMSO (v/v). For ArgC and ArgD, the 25 μL reaction volume consisted of the following: 2.5 μM ArgC/5 μM ArgD, 100 mM sodium phosphate pH 7, 200 mM NaCl, 5x SYPRO Orange, and 5 mM fragments (960 fragment library). The protocol implemented increased temperature by 0.5 °C after every 30 s, going from 25 °C to 95 °C and measuring SYPRO Orange fluorescence for each temperature cycle. The melt curve RFU (relative fluorescence units) and derivative -d(RFU)/dT values were analysed and plotted using a macros-enabled Excel Workbook: the minima of the melt curves were recorded as the melting temperature (Tm) of the enzymes in the presence of each fragment. The Tm of the reference control (protein in the presence of DMSO) was subtracted from all the readings to calculate ΔTm.

M. tuberculosis ΔargB-c = experiment: microbe, parasite or virus in culture; format: cell-based, Mycobacterium tuberculosis; conditions: for MIC: Mycobacterium tuberculosis
ArgB [7] = biological target: T2, ArgB; experiment: biochemical; format: binding; conditions: 25 °C, single-site model; read-out: ITC Kd
ArgB [8] = biological target: T2, ArgB; experiment: ArgB enzymatic assay (ADP release coupled to NADH oxidation, pyruvate kinase/lactate dehydrogenase); format: biochemical; conditions: for IC50: 0.5 µM ArgB, 0.3 mM ATP, 1.25 mM NAG, 10% DMSO, read-out: IC50; for Nature of ArgB inhibition in enzymatic competition assays: 0.3 mM ATP or NAG, other substrate varied
Protocol: ArgB activity was assessed by a colorimetric assay that followed the release of ADP by measuring the oxidation of NADH at 340 nm, for 30 min, in the presence of pyruvate kinase and lactate dehydrogenase in a PHERAstar plate-reader (BMG-Labtech). […]. Inhibitors were also individually screened against the coupled enzymes to eliminate any compounds interfering with the other assay components. Competition assays were performed in the same conditions using 0.3 mM of ATP or NAG and varying the other substrate concentration.

ArgD [9] = biological target: T3, ArgD (Mycobacterium tuberculosis, UniProt P9WPZ7); experiment: Surface plasmon resonance with immobilised ArgD; format: binding; conditions: fragments at 1 mM, adjusted for molecular weight
T3 sequence (P9WPZ7 whole entry, the tested form may be a part): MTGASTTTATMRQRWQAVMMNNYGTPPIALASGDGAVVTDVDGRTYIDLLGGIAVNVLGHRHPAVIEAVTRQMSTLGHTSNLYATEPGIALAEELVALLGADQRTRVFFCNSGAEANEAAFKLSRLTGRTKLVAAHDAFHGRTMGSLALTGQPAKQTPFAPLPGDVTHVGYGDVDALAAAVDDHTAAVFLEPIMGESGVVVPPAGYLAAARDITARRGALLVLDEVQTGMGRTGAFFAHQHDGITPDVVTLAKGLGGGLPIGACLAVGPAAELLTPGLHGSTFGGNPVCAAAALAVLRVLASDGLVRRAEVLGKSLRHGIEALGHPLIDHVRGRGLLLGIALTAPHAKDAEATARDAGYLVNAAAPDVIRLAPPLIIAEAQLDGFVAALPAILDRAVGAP

ArgD [10] = biological target: T3, ArgD; experiment: Differential scanning fluorimetry (DSF) against ArgD; format: binding; conditions: fragments at 5 mM, PLP-unsaturated ArgD
ArgD [11] = biological target: T3, ArgD; experiment: ArgD end point enzymatic assay (reverse reaction, 2-aminobenzaldehyde, 440 nm); format: biochemical
Protocol: To assess the activity of ArgD an end point assay that follows the reverse reaction of the enzyme was used in the presence and absence of fragments. Reactions (100 μL) were set up containing the following: 100 mM Tris-HCl pH 8, 3 mM N-acetylornithine (NAO), 3.4 mM α-KG, 20 μM PLP and 4 μM enzyme. Duplicate reaction mixtures were prepared for each time point and 8 time points (0, 5, 10, 15, 20, 30, 45, 60 min) were tested in total. Two controls were prepared: one with all reaction components except the enzyme, and the other with all reaction components except NAO (NAO was added after HCl treatment). The reactions tubes were allowed to equilibrate in a heating block set at 37 °C for two minutes, and the enzyme was added to initiate the reaction. After the stipulated incubation times, contents of the reaction tubes were quickly transferred to 1.5 ml microcentrifuge tubes containing 60 μL of 6 N HCl to stop the reactions. These tubes were then kept in a heating block set at 95 °C for 30 min, after which they were cooled to 25 °C in a water bath. 200 μL of 3.6 M sodium acetate was added to each tube (final concentration of 1.8 M), along with 40 μL of 30 mM 2-aminobenzaldehyde (final concentration of 3 mM in a total volume of 400 μL). A yellow colouration started developing as soon as the latter was added, the contents were vortexed and the tubes were incubated at 25 °C for 15 min. 200 μL of each reaction mixture was transferred into wells of a 96-well flat bottom UV transparent microplate, and absorbance at 440 nm was measured using the PHERAstar plate reader. All experiments were performed at least in triplicate in a PHERAstar plate-reader (BMG-Labtech) and the control without ArgD was used for blank subtraction. Data were analysed with GraphPad Prism (Graphpad Software). All reagents were obtained from Sigma-Aldrich.
Aminotransferases are often assayed for the reverse reactions they catalyse because in most cases substrates for the forward reaction are not commercially sold. […]

M. tuberculosis = system: M. tuberculosis; parameters: method as in PMID 29483133; conditions: BALB/c mice, chemical inhibition of ArgJ; cited from earlier work

## Cc1sc(N)nc1-c1ccccc1 [NMR007]
ArgF [1]
  Kd: 161 ± 20 µM
ArgF [2]
  ΔTm at 5000 µM: 3 °C

## O=c1cc[nH]c2c(C(F)(F)F)cccc12 [NMR446, 8-(trifluoromethyl)-1H-quinolin-4-one]
ArgB [3]
  STD: binds
[4]
  MIC: > 200 mg/L
ArgB [5]
  CPMG: binds
  NMR competition with natural ligands (ATP, NAG, L-arginine): not competitive
M. tuberculosis H37Rv
  MIC: > 200 mg/L
  Inhibitory activity on growth with arginine present: no inhibitory activity
ArgB [6]
  ΔTm at 5000 µM: 8 °C
M. tuberculosis ΔargB-c
  Inhibitory activity on growth with arginine present: no inhibitory activity
  MIC: > 200 mg/L
ArgB [7]
  Kd: 24 ± 1.5 µM
ArgB [8]
  IC50: 707 ± 7 µM
  Nature of ArgB inhibition in enzymatic competition assays: non-competitive

## O=C(O)c1cc2ccccc2cc1O [NMR608, 3-Hydroxy-2-naphthoic acid]
ArgD [9]
  SPR Binding Response with PLP injection: 50.3 RU
ArgD [10]
  ΔTm at 5000 µM: 2.4 °C
ArgD [11]; 2 mM fragment, 4 μM ArgD
  % inhibition at 2 mM: 16.6%
  inhibition at 2000 µM: 16%
ArgD [11]; read-out: % inhibition at 4 mM, 4 mM fragment, 4 μM ArgD
  inhibition at 4000 µM: 31%

## O=c1cc(C(F)(F)F)[nH]c2c(C(F)(F)F)cccc12 [NMR711, 2,8-bis(trifluoromethyl)-1H-quinolin-4-one]
ArgB [3]
  STD: binds
[4]
  MIC: 25 to 50 mg/L (≈ 88.9 to 178 µM)
[4]; V2475, arginine (1 mM) in the media
  Inhibitory activity on growth with arginine present: inhibitory
ArgB [5]
  CPMG: binds
  NMR competition with natural ligands (ATP, NAG, L-arginine): not competitive
M. tuberculosis H37Rv
  MIC: 25 to 50 mg/L (≈ 88.9 to 178 µM)
  Inhibitory activity on growth with arginine present: inhibitory
ArgB [6]
  ΔTm at 5000 µM: 7.9 °C
M. tuberculosis ΔargB-c
  Inhibitory activity on growth with arginine present: inhibitory
  MIC: 25 to 50 mg/L (≈ 88.9 to 178 µM)
ArgB [7]
  Kd: 7.7 ± 0.8 µM
ArgB [8]
  IC50: 366 ± 4 µM
  Nature of ArgB inhibition in enzymatic competition assays: non-competitive

## OB(O)c1cc(Cl)cc(Cl)c1 [NMR812]
ArgF [1]
  Kd: 120 ± 30 µM
ArgF [2]
  ΔTm at 5000 µM: 3.6 °C

## O=C(Nc1cccc2c(=O)cc(-c3nnn[nH]3)oc12)c1ccc(OCCCCc2ccccc2)cc1 [Pranlukast]
M. tuberculosis
  Effect on chronic M. tuberculosis infection: cleared a chronic M. tuberculosis infection
